Consider four compounds from publication PMC11277489, “Novel Piperazine Derivatives of Vindoline as Anticancer Agents” (International Journal of Molecular Sciences, 2024).

Where two headings read alike, the source gives them in different places.

As a reminder, the IC50 is the concentration that gives 50% inhibition. Usually viability stands for a read-out of living cells in per cent, often relative to untreated cells. A higher viability goes with better survival.

One data set has as its system HeLa cell line. On the set-up: method as in PMID 32102414. The following applies: cited from earlier work.
Data set [1] deals with non-tumor Chinese hamster ovary (CHO) cells. The data set can be described thus: CellTiter-Glo Luminescent Cell Viability Assay on non-tumor CHO cells. Format: cell-based. Conditions: for effect on CHO cell viability (in words) / IC50: 48 h; for effect on CHO cell viability (in words): 10^−7 and 10^−6 M; for IC50: read-out: IC50 (estimated). The protocol: (§1) Three promising conjugates (20, 23, 25) were selected for testing on the non-tumor CHO cell line in the CellTiter-Glo Luminescent Cell Viability Assay (Promega Corporation, Madison, WI, USA) to reveal their selectivity for cancer cells.
(§2) Compounds 20, 23, and 25 were dissolved in DMSO in 10 mM stock solutions and stored frozen until use. CHO cells were cultured in complete Dulbecco’s Modified Eagle’s Medium (DMEM, low glucose (1 g/L)) supplemented with 10% fetal bovine serum, 1% Gibco GlutaMAX-I (100×) solution, 1% Gibco MEM non-essential amino acid solution (100×), and 0.1% penicillin–streptomycin mixture. Cells were grown in T-25 size cell culture flasks under standard cell culture conditions (37 °C, 5% CO2) and passaged at 70–80% confluency. The assay was performed according to the manufacturer’s protocol, as described previously. Briefly, CHO cells were seeded to opaque 96-well culture plates at a density of 5000 cells/100 µL complete DMEM/well. The side rows and columns of the plate were filled with sterile phosphate-buffer saline to avoid an edge effect. Following overnight incubation (37 °C, 5% CO2), the culture medium was aspirated from the cells and replaced with increasing concentrations of drug solutions (10^−5, 10^−6, and 10^−7 M) diluted from the stock solution in sterile complete DMEM (100 µL/well). Untreated cells served as a control, and complete DMEM served as a luminescent background control. Drug-treated cells were incubated for 48 h (37 °C, 5% CO2), and then equilibrated to room temperature in 30 min. At the end of the incubation period, 100 µL of room temperature CellTiter-Glo reagent was added to each well, and the plates were placed on an orbital shaker for 2 min and incubated for additional 10 min at room temperature without shaking. The luminescent signal was measured using an EnSpire AlphaLisa microplate reader (Perkin Elmer, Inc., Waltham, MA, USA). The normalized luminescent values of the treated cells were compared to those of the untreated control. The statistical analysis and calculation of IC50 values were performed in GraphPad Prism 8.0.1 (GraphPad, La Jolla, CA, USA). Estimated IC50 values were calculated by using non-linear regression by fitting a sigmoidal dose–response curve to the data points.

Assay in data set [2]: as above
Format: cell-based, Chinese hamster. Conditions: Chinese hamster, CHO cells, 48 h, 10^−5 M, mean ± SD, n = 9. The procedure: as §1, §2

The mark [3] stands for this setting: Cricetulus griseus, CHO cells, roughly estimated from three concentrations.
Setting [4] is: CHO cells (non-tumor Chinese hamster ovary cell line).

On to `CCC12C=CCN3CCC4(c5ccc(OC)cc5N(C)C4C(O)(C(=O)OC)C1OC(=O)CCCN1CCN(C)CC1)C32` (centres unmarked) [Compound 3], for which, in the data set with HeLa cell line, the IC50 was 9.36 µM.
`CCC12C=CCN3CCC4(c5cc(NC(=O)CN6CCN(C(c7ccc(F)cc7)c7ccc(F)cc7)CC6)c(OC)cc5N(C)C4C(O)(C(=O)OC)C1OC(C)=O)C32` (centres unmarked) [Compound 20]: the “effect on CHO cell viability (in words)” value in data set [1] (CHO cells) was “did not affect CHO cell viability”. Also, in data set [1] (setting [3]), the IC50 was roughly 2.54 µM. Also, the viability at 48 h in data set [2] (setting [4]) came out at 1.25 ± 0.77%.
On to `CC[C@]12C=CCN3CC[C@@]4(c5ccc(OC)cc5N(C)[C@H]4[C@@](O)(C(=O)OC)[C@@H]1OC(=O)CCCN1CCN(Cc4ccc(C(F)(F)F)cc4)CC1)[C@@H]32` [Compound 23], for which, in data set [1] (CHO cells), the “effect on CHO cell viability (in words)” value was “did not affect CHO cell viability”. Besides, the EC50 in data set [1] (Cricetulus griseus, CHO, non-tumor cells, read-out: half-maximal effective concentration (EC50)) turned out to be 10.8 µM. The IC50 in data set [1] (setting [3]) was roughly 10.8 µM. The compound further returned a viability at 48 h in data set [2] (setting [4]) of 52.8 ± 7.25%.
As to `CC[C@]12C=CCN3CC[C@@]4(c5ccc(OC)cc5N(C)[C@H]4[C@@](O)(C(=O)OC)[C@@H]1OC(=O)CCCN1CCN(C(c4ccc(F)cc4)c4ccc(F)cc4)CC1)[C@@H]32` [Compound 25], the “effect on CHO cell viability (in words)” value in data set [1] (CHO cells) was “did not affect CHO cell viability”. The IC50 in data set [1] (Cricetulus griseus, CHO) was roughly 6.64 µM. The same compound showed a viability at 48 h in data set [2] of 33.5 ± 19.6%.
